In US7507806B2, “Nucleic acid sequences of human Rif1” (The Rockefeller University, priority 2004, dated 2009):

What was measured:
Type in all cases: cell-based, human
Rif1 foci [1] = assay: UV-induced Rif1 foci by indirect immunofluorescence; details: aphidicolin after the UV irradiation
Procedure: (§1) For IR treatment, cells were exposed to gamma(λ)-irradiation using a Cs^137 source at a rate of 7.7 Gray/min in 6 cm dishes. For UV radiation, cells were washed with PBS and exposed to 25 J/m^2 UV (265 nm) radiation in a Stratalinker (Stratagene) without a lid. After UV radiation, cells were incubated in media until harvest. For immunoblotting as described in FIG. 2B, cells were harvested 1 hr post-UV. MMS and etoposide (0.01% w/v and 50 μg/ml, respectively) were added to the media and cells were incubated for 1 hr before harvesting.
(§2) To stain cells for immunofluorescence, tissue culture cells plated on dishes with coverslips were washed twice with PBS, fixed with 2% paraformaldehyde in PBS (stored at −20° C.) for 10 minutes at room temperature (RT), washed twice with PBS and permeabilized with 0.5% NP-40 in PBS for 10 minutes at RT and washed three times with PBS. Cells were processed immediately or stored at 4° C. wrapped in PBS with sodium azide. […]

53BP1 foci = 53BP1 foci by indirect immunofluorescence after IR or UV; details: aphidicolin after the UV irradiation
Procedure: as §1, §2

Rif1 foci [2] = assay: Rif1 foci after drug treatment, immunofluorescence; details: MMS 0.01% w/v, etoposide 50 μg/ml, 1 hr; hydroxyurea prolonged incubation
Procedure: as §1
To stain cells for immunofluorescence, tissue culture cells plated on dishes with coverslips were washed twice with PBS, fixed with 2% paraformaldehyde in PBS (stored at −20° C.) for 10 minutes at room temperature (RT), washed twice with PBS and permeabilized with 0.5% NP-40 in PBS for 10 minutes at RT and washed three times with PBS. Cells were processed immediately or stored at 4° C. wrapped in PBS with sodium azide. Coverslips were placed on parafilm in a humidified tray and blocked with PBG (0.2% (w/v) cold water fish gelatin (Sigma), 0.5% (w/v) BSA (Sigma) in PBS (stored at −20° C.) for 30 minutes at RT. Cells were then incubated with primary antibody diluted in PBG for 3 hours at RT, washed three times with PBG for 5 minutes at RT, incubated with secondary antibody diluted 1:100 in PBG for 40 minutes at RT, washed three times with PBG for 5 minutes at RT (with the last wash containing DAPI ([…]). Coverslips were then washed twice with PBS and mounted on glass slides in mounting media and sealed with nail polish.

Row | Structure (SMILES) | Rif1 foci after UV (Rif1 foci [1]) | 53BP1 foci after UV (53BP1 foci) | Rif1 foci formation after treatment (Rif1 foci [2])
1 | C[C@@]1(CO)[C@H](O)CC[C@@]2(C)[C@H]1CC[C@H]1C[C@@H]3C[C@@]12CC[C@]3(O)CO [Aphidicolin] | fail to form Rif1 foci after UV | still detectable | –
2 | COS(C)(=O)=O [MMS] | – | – | forms foci
3 | COc1cc([C@@H]2c3cc4c(cc3[C@@H](O[C@@H]3O[C@@H]5CO[C@@H](C)O[C@H]5[C@H](O)[C@H]3O)[C@H]3COC(=O)[C@H]23)OCO4)cc(OC)c1O [etoposide] | – | – | forms foci
4 | NC(=O)NO [hydroxyurea] | – | – | forms foci
